According to patent US20160166608A1, “METHODS OF TREATING CANCER WITH HIGH POTENCY LIPID-BASED PLATINUM COMPOUND FORMULATIONS ADMINISTERED INTRAPERITONEALLY” (Insmed Incorporated, priority 2005, published 2016):

Test system: L1210 cells
Experiment: Survival of DBA/2 mice with L1210 cells after a single ip bolus (Example 15)
Format: in vivo, mouse
Conditions: 6 mg/kg single ip bolus on day 5; L1210, DBA/2 mice
Protocol: DPPC (3.0 g) and cholesterol (1.2 g) were co-dissolved in 20 mL of ethanol. • 2.
The mice were given equivalent amounts of cisplatin containing therapeutics based on the amount of lipid instead of the amount of cisplatin.
Female DBA/2 mice (Charles Rivers) were used. Thirty (30) mice were injected with 2×10^6 L1210 cells ip on Day 0. On day 1, the mice were weighed and randomized into 3 groups of 10 mice. […] Survival was monitored. Mice were weighed daily after day 10. Mice that lost 20% or greater of their starting weight were euthanized by CO2 inhalation. The date of their death was recorded on data sheets. Median survival was calculated by Prism GraphPad.

## N.N.[Cl][Pt][Cl] [cisplatin, cis-diamine-dichloroplatinum (II)]
  days of median survival: 19.5 days
